Test results: paper PMC4286469 (Cancer research, 2014)
Where a SMILES comes first, the peptide text is derived from it. The star is where a group is joined. Cbz = O=C(OCc1ccccc1)*; CH2F = FC*

Tests used:
SK-Mel5 xenografts = experiment: Marker analysis of SK-Mel5 xenograft tumors; format: in vivo, BALB/C nu/Foxn1 athymic nude mice; conditions: for p53 induction/activation in tumors (Western blot): (−)-Nutlin-3 200mg/kg
SK-Mel5 melanoma cells = experiment: Viability/cytotoxicity of SK-Mel5 melanoma cells; format: cell-based, human; conditions: for viability of melanoma cells under continuous exposure: p53^WT SK-Mel5, (−)-Nutlin-3 10µM, MLN8237 1µM, 7 days, Fig. 1D, E
p53 [1] = experiment: p53 level and activity in p53^MUT SK-Mel28 cells; format: cell-based, human
p53 [2] = experiment: p53 and p53 target levels in cultured p53^WT melanoma cells; format: cell-based, human; conditions: for accumulation of p53 and its transcriptional targets: p53^WT cells (SK-Mel5 and Hs294T), (−)-Nutlin-3 10µM, MLN8237 1µM, 5 days
SK-Mel5 cells = format: cell-based, human
[3] = Plasma and tumor pharmacokinetics in B16F0 melanoma-bearing C57Bl6 mice; conditions: 200 mg/kg oral
B16F0 tumors [4] = experiment: B16F0 tumors in syngeneic immunocompetent C57Bl/6 mice; format: in vivo
cells with p53 knockout = experiment: Viability of cells with p53 knockout; format: cell-based; conditions: Fig. S2A
[5] = tested on: non-resectable melanoma tumors driven by BRAF^V600E; conditions: patients; ref [1]–[5]; cited from earlier work
B16F0 tumors [6] = experiment: B16F0 tumors in immunodeficient NSG mice; format: in vivo; conditions: Fig. 4I
[7] = tested on: patient-derived metastatic melanoma tumors; conditions: independent of BRAF and NRAS mutational status; ref [7]; cited from earlier work
in vivo = conditions: C57Bl6, mouse, po, 30 mg/kg
[8] = mouse, in vivo, po, 30 mg/kg

Q: With (−)-Nutlin-3 as the compound, how does the “p53 induction/activation in tumors (Western blot)” value (SK-Mel5 xenografts; MLN8237 30mg/kg daily) read?
A: Its value is “modest”.

Q: And the “tumor cells showing induction of apoptosis marker AIF” value (SK-Mel5 xenografts; Fig. 3C)?
A: The value was “no more than 15%”.

Q: What about the “tumor cells with elevated/strong p53 staining” value (SK-Mel5 xenografts; Fig. S3, untreated control tumors 3–6%) of the same compound?
A: Its value is 11%.

Q: What about the “cytotoxicity in senescent and non-senescent cells” value (SK-Mel5 melanoma cells; SK-Mel5, senescent (1 µM MLN8237 pre-treated) and non-senescent (vehicle pre-treated) cells, Fig. 1A, B) of the same compound?
A: The value was “dose-dependent cytotoxicity”.

Q: And the “viability of melanoma cells under continuous exposure” value (SK-Mel5 melanoma cells)?
A: The value was “killed p53^WT melanoma cells”.

Q: What about the “level and activity of p53” value (p53 [1]) of the same compound?
A: The value was “unaffected”.

Q: What about the “cells showing strong p53 induction in vitro” value (p53 [2]; in vitro, Fig. S2B) of the same compound?
A: Its value is 100%.

Q: And the “accumulation of p53 and its transcriptional targets” value (p53 [2])?
A: The value was “induced accumulation of p53 and its transcriptional targets p21, PUMA, BAX and MDM2”.

Q: What about the “mitochondrial membrane potential (JC-1)” value (SK-Mel5 cells; (−)-Nutlin-3 10µM, MLN8237 1µM, 5 days) of the same compound?
A: Its value is “decrease in mitochondrial membrane potential”.

Q: What about the “cleavage of caspase 3” value (SK-Mel5 cells; Fig. S2C) of the same compound?
A: Its value is “not detected”.

Q: And the “Apoptosis Inducing Factor (AIF) activation and translocation” value (SK-Mel5 cells; SK-Mel5, IF staining)?
A: Its value is “induced activation, mitochondrial release and nuclear translocation”.

Q: What about the “apoptosis (Annexin V-FITC and PI staining)” value (SK-Mel5 cells; p53^WT melanoma cells, 10µM, 5 days) of the same compound?
A: Its value is “induced apoptosis”.

Q: What about the “median (−)-Nutlin-3 AUC0–24hr, plasma” value ([3]; plasma) of the same compound?
A: The value was 292.7 µg·h/mL.

Q: And the “median (−)-Nutlin-3 AUC0–24hr, tumor tissue” value ([3]; tumor tissue)?
A: The value was 455.6 µg·h/mL.

Q: And the “p53 levels in tumors” value (B16F0 tumors [4]; IF staining, Fig. 4D)?
A: Its value is “not strongly induced”.

Q: What about the “viability of cells with p53 knockout” value (cells with p53 knockout) of the same compound?
A: Its value is “did not affect viability”.

Q: With `CC(C)(C)c1nc(-c2cccc(NS(=O)(=O)c3c(F)cccc3F)c2F)c(-c2ccnc(N)n2)s1` [dabrafenib] as the compound, how does the median progression-free survival [5] read?
A: The median progression-free survival was 6 months.

Q: For `COc1cc(Nc2ncc3c(n2)-c2ccc(Cl)cc2C(c2c(F)cccc2OC)=NC3)ccc1C(=O)O` [MLN8237], which “p53 induction/activation in tumors (Western blot)” value (SK-Mel5 xenografts; MLN8237 30mg/kg daily) is on record?
A: The value was “moderate induction of p53”.

Q: And the “AURKA activity (auto-phosphorylation) in tumor lysates” value (SK-Mel5 xenografts; MLN8237 30mg/kg daily)?
A: Its value is “inhibited AURKA activity”.

Q: And the “tumor senescence (SA-β-Gal activity) and proliferation markers” value (SK-Mel5 xenografts; MLN8237 30mg/kg daily)?
A: Its value is “inhibition of cancer cell proliferation and induction of senescence”.

Q: What about the “viability of melanoma cells under continuous exposure” value (SK-Mel5 melanoma cells) of the same compound?
A: The value was “mostly cytostatic response”.

Q: What about the “clearance of necrotic areas in senescent tumors” value (B16F0 tumors [6]) of the same compound?
A: The value was “abrogated”.

Q: What about the “accumulation of p53 and its transcriptional targets” value (p53 [2]) of the same compound?
A: Its value is “induced p53 accumulation”.

Q: And the “patient-derived metastatic melanoma tumors with markedly slowed growth” value [7]?
A: The value was greater than 75%.

Q: And the AUC(0-t) (in vivo)?
A: The AUC(0-t) was 42.7 µg·h/mL.

Q: What about the tumor growth (B16F0 tumors [4]; (−)-Nutlin-3 200mg/kg twice daily, MLN8237 30mg/kg once a day, oral gavage) of the same compound?
A: Its tumor growth is “partially inhibited tumor growth”.

Q: What about the “CCL5 levels in melanoma cells and fibroblasts sorted from tumors (qRT-PCR)” value (B16F0 tumors [4]; Fig. 5B) of the same compound?
A: Its value is “increased”.

Q: And the “tumor necrosis (H&E)” value (B16F0 tumors [4]; immunocompetent mice, Fig. 4G)?
A: Its value is “striking absence of necrosis”.

Q: What about the “overall median MLN8237 AUC0–24hr, tumor tissue” value [8] of the same compound?
A: Its value is 37.4 µg·h/g.

Q: Which “effect of pan-caspase inhibitor on cytotoxic response to p53 activation” value (SK-Mel5 cells) does the source give for `COC(=O)C[C@H](NC(=O)[C@H](C)NC(=O)[C@@H](NC(=O)OCc1ccccc1)C(C)C)C(=O)CF` [pan-caspase inhibitor, Z-VAD-FMK] (Cbz-Val-Ala-Asp(OMe)-CH2F) here?
A: The value was “did not interfere”.
